In one series the test system is MDCK-MDR1 monolayers. The series can be described thus: Transepithelial electrical resistance (TEER) before and after permeation. As to conditions: after versus before permeation. Type of series: cell-based, canine. The protocol:
Cell monolayers were pre-incubated in Hank’s buffered salt solution (HBSS, pH 7.4) for 30 min at 37 °C. Transepithelial electrical resistance (TEER) values were measured across the monolayers using a Millipore Millicell ERS system equipped with chopstick electrodes (Millipore Corporation, Billerica, MA, USA). Approximate MDCK-MDR1 values ranged from 500 to 800 Ω·cm^2. To measure apical (A)→basolateral (B) transporter, 0.5 mL of drug solution was added in A side and 1.5 mL of HBSS in B side. Basolateral (B)→apical (A) transporter was evaluated adding 1.5 mL of drug solution in B side and 0.5 mL of HBSS in A side. […] Transepithelial electrical resistance (TEER) of the monolayers was measured with the EVOM instrument (Millipore Corporation). The TEER of untreated cells and cells treated with LIG, SENI and SENA was determined in HBSS before and after the experiment. The measured TEER before the experiment was set as 100% and all other values were calculated according to this.

The subject of series [1] is MDCK-MDR1 cell monolayers. The series can be described thus: Transport of PF across MDCK-MDR1 cell monolayers (BBB in vitro model), LC-MS/MS. Type of series: in vitro ADME, canine. The protocol:
(§1) Cell monolayers were pre-incubated in Hank's buffered salt solution (HBSS, pH 7.4) for 30 min at 37 °C. Transepithelial electrical resistance (TEER) values were measured across the monolayers using a Millipore Millicell ERS system equipped with chopstick electrodes (Millipore Corporation, Billerica, MA, USA). […] To measure apical (A)→basolateral (B) transporter, 0.5 mL of drug solution was added in A side and 1.5 mL of HBSS in B side. Basolateral (B)→apical (A) transporter was evaluated adding 1.5 mL of drug solution in B side and 0.5 mL of HBSS in A side. […] Each measurement was evaluated in triplicate. Cells were incubated in a 37 °C shaking incubator. […] The supernatants were transferred to autosampler vials and injected into the LC-MS system. An HPLC system consisting of a solvent-delivery system […], an autosampler SIL-30 AC, a column oven CTO-30 AC, a solvent degasser DGU-20A3 and a controller CBM-20A from […] was used in the study. Separation was conducted using a Phenomenex Kinetex NB-C18 (100 × 3.0 mm, 2.6 μm, Torrance, CA, USA). The column oven was maintained at 30 °C. The mobile phase was water as mobile phase A and acetonitrile as mobile phase B. […] The injection volume was set at 5 μL. The MS analysis was performed on a 4500 QTRAPTM system from Applied Biosystems (AB Sciex) equipped with Turbo V sources and Turbo IonsprayTM interface. Electrospray ionization was performed in negative mode. The mass spectrometric parameters were optimized as: Turbo Ion Spray (TIS) temperature, 650 °C; ion spray voltage, -4500 V; curtain gas, nitrogen, 30; nebulizing gas, 50; TIS gas, 50; declustering potential, -130 eV for PF, 0 eV for internal standard (IS, gastrodin); collision energy, -30 eV for PF, -35 eV for IS. […] Analyst SoftwareTM (version 1.6.1) was used to process the obtained data. […] The efflux ratio (ER) was calculated according to the following Equation (4): (4) […]→BL

In series [2] the test system is P-gp. The series is described as follows: Western blot of P-gp expression in MDCK-MDR1 cells. Type of series: cell-based, canine. As to conditions: 8 hours. On the procedure: Cells treated with different concentrations of LIG, SENA and SENI for 8 hours were subject to Western blot assay. Proteins were extracted from whole cell lysates and separated by sodium dodecyl sulfate–polyacrylamide gel electrophoresis, then transferred to a polyvinylidene fluoride (PVDF) membrane. The following primary antibodies were used: rabbit anti-P-gp (1:1000; Abcam, Cambridge, MA, USA) and mouse anti-β-actin (1:2000; Abcam). Membranes were then incubated with the horseradish peroxidase-conjugated secondary anti-bodies (1:5000; Abcam). The transferred proteins were incubated with enhanced chemiluminescence (ECL) substrate solution and visualized with the Image J program (Bio-Rad, Richmond, CA, USA). The relative levels were quantified densitometrically by using the Quantity One software (Bio-Rad Laboratories) and calculated according to the reference bands of β-actin.

Series [3] in a line: Transport of PF across MDCK-MDR1 cell monolayers (BBB in vitro model), LC-MS/MS. Type of series: in vitro ADME, canine. As to conditions: dog. The protocol: as §1
Series [4] deals with P-gp. The description is as above. Type of series: in vitro ADME, canine. As to conditions: dog, MDCK-MDR1, pH 7.4, 400 μg/mL PF + verapamil (P-gp inhibitor), mean ± SD (n = 3). On the procedure: as §1
In the next series the test system is P-gp (MDR1). The description is as above. Type of series: in vitro ADME, canine. As to conditions: dog, MDCK-MDR1, pH 7.4. On the procedure:
as §1

Setting [5] is: enhancer 20 µg/mL with 400 µg/mL PF, versus PF alone.
Setting [6] is: enhancer 40 µg/mL with 400 µg/mL PF, versus PF alone.
Setting [7] is: enhancer 80 µg/mL with 400 µg/mL PF, versus PF alone.

For the compound `CCC/C=C1\OC(=O)C2=C1CC[C@H](O)[C@H]2O` [SENI, senkyunolide I], the “TEER change during permeation studies” value in the series on MDCK-MDR1 monolayers (80 μg/mL with 400 μg/mL PF) is “markedly decreased”. Also, the “Effect on A→B transport (Papp/flux) of PF” value (shortened to “Effect … (Papp/flux) of PF”) in series [1] (setting [5]), in series [1] (setting [6]) and in series [1] (setting [7]) was “significantly increased” each time. The “P-gp expression versus control group” value in the series with P-gp [2] (20 μg/mL), with P-gp [2] (40 μg/mL) and in the series on P-gp [2] (80 μg/mL) was “markedly down-regulated” throughout.
In the case of `C[C@@]12C[C@@]3(O)O[C@@H](O1)[C@]1(COC(=O)c4ccccc4)[C@H]3C[C@@]12O[C@@H]1O[C@H](CO)[C@@H](O)[C@H](O)[C@H]1O` [PF, paeoniflorin], in series [3] (MDCK-MDR1, pH 7.4, 400 μg/mL PF + 2.5 mmol/L EDTA-Na2, mean ± SD (n = 3)), the Papp A→B at 150 min, 400 μg/mL worked out at 2.74 ± 0.212 ×10⁻⁶ cm/s. In series [3] (MDCK-MDR1, pH 7.4, PF 100 μg/mL, MDCK-MDR1 monolayers, mean ± SD (n = 3)), this compound registered a Papp A→B at 150 min, 100 μg/mL of 0.697 ± 0.053 ×10⁻⁶ cm/s. The Papp A→B at 150 min, 200 μg/mL in series [3] (MDCK-MDR1, pH 7.4, PF 200 μg/mL, MDCK-MDR1 monolayers, mean ± SD (n = 3)) is 0.691 ± 0.082 ×10⁻⁶ cm/s. Further, the Papp A→B at 150 min, 400 μg/mL in series [3] (MDCK-MDR1, pH 7.4, PF 400 μg/mL, MDCK-MDR1 monolayers, mean ± SD (n = 3)) was 0.587 ± 0.088 ×10⁻⁶ cm/s. In series [3] (MDCK-MDR1, pH 7.4, PF 600 μg/mL, MDCK-MDR1 monolayers, mean ± SD (n = 3)), this compound gave a Papp A→B at 150 min, 600 μg/mL of 0.666 ± 0.072 ×10⁻⁶ cm/s. Besides, the Papp A→B at 150 min, 800 μg/mL in series [3] (MDCK-MDR1, pH 7.4, PF 800 μg/mL, MDCK-MDR1 monolayers, mean ± SD (n = 3)) came to 0.705 ± 0.107 ×10⁻⁶ cm/s. For the same compound, the Papp A→B at 150 min in series [3] (MDCK-MDR1, pH 7.4, PF 100-800 μg/mL, MDCK-MDR1 cells, read-out: Papp (A→B), range over tested concentrations) fell in the range of 0.587 to 0.705 ×10⁻⁶ cm/s. This compound registered an apparent permeability from basolateral to apical (Papp B→A) at 150 min, 100 μg/mL in series [3] (pH 7.4, PF 100 μg/mL, MDCK-MDR1 monolayers, mean ± SD (n = 3)) of 1.55 ± 0.092 ×10⁻⁶ cm/s. Besides, the apparent permeability from basolateral to apical (Papp B→A) at 150 min, 200 μg/mL in series [3] (pH 7.4, PF 200 μg/mL, MDCK-MDR1 monolayers, mean ± SD (n = 3)) came out at 1.48 ± 0.363 ×10⁻⁶ cm/s. The basolateral-to-apical permeability (Papp B→A) at 150 min, 400 μg/mL in series [3] (pH 7.4, PF 400 μg/mL, MDCK-MDR1 monolayers, mean ± SD (n = 3)) is 1.3 ± 0.084 ×10⁻⁶ cm/s. Also, the basolateral-to-apical permeability (Papp B→A) at 150 min, 600 μg/mL in series [3] (pH 7.4, PF 600 μg/mL, MDCK-MDR1 monolayers, mean ± SD (n = 3)) amounted to 1.44 ± 0.201 ×10⁻⁶ cm/s. In series [3] (pH 7.4, PF 800 μg/mL, MDCK-MDR1 monolayers, mean ± SD (n = 3)), this compound returned a Papp B→A at 150 min, 800 μg/mL of 1.42 ± 0.097 ×10⁻⁶ cm/s. The “Increase of Papp (A→B) of PF in comparison with the non-EDTA-Na2 added” value in series [1] (400 μg/mL PF with 2.5 mmol/L EDTA-Na2) was “about five”. Further, in series [1] (400 μg/mL PF with verapamil), the “Increase of Papp (A→B) of PF in comparison with the non-verapamil added” value is on record as “about 1.2 fold”. In addition, the “ER (B→A/A→B)” value in series [1] (PF 600 μg/mL, MDCK-MDR1 monolayers) stood at 2.156. Moreover, in series [1] (PF, all tested concentrations, MDCK-MDR1 cells), the “B→A/A→B permeability ER” value was “more than 2”. For the same compound, the Papp A→B at 150 min, 400 μg/mL in the series on P-gp [4] was found to be 0.707 ± 0.062 ×10⁻⁶ cm/s. Also, in the series on P-gp (MDR1), the efflux ratio at 150 min, 100 μg/mL came to 2.22; the efflux ratio at 150 min, 200 μg/mL came out at 2.13; the efflux ratio at 150 min, 400 μg/mL was determined as 2.21; the efflux ratio at 150 min, 800 μg/mL was determined as 2.01.
`CCCCC1OC(=O)C2=C1CCC=C2` (stereo not shown) [SENA, senkyunolide A]: the “TEER change during permeation studies” value is reported as “markedly decreased” in the series with MDCK-MDR1 monolayers (20 μg/mL with 400 μg/mL PF), “markedly decreased” with MDCK-MDR1 monolayers (40 μg/mL with 400 μg/mL PF) and “significantly decreased” in the series with MDCK-MDR1 monolayers (80 μg/mL with 400 μg/mL PF). Also, the “Effect … (Papp/flux) of PF” value in series [1] (setting [5]), in series [1] (setting [6]) and in series [1] (setting [7]) was “significantly increased” each time. Moreover, the “Increase of the transport of PF” value in series [1] (enhancer 80 µg/mL with 400 µg/mL PF, A→B, versus PF alone) is “approximately 109%”. Further, the “P-gp expression versus control group” value was “significantly down-regulated” in the series with P-gp [2] (20 μg/mL), “markedly down-regulated” in the series with P-gp [2] (40 μg/mL) and “markedly down-regulated” in the series on P-gp [2] (80 μg/mL).
Turning to `CCC/C=C1\OC(=O)C2=C1CCC=C2` [LIG, ligustilide], the results for the “TEER change during permeation studies” value in the series with MDCK-MDR1 monolayers (20 μg/mL with 400 μg/mL PF), in the series with MDCK-MDR1 monolayers (40 μg/mL with 400 μg/mL PF) and in the series with MDCK-MDR1 monolayers (80 μg/mL with 400 μg/mL PF) were “significantly decreased”, “markedly decreased” and “markedly decreased”, respectively. Also, the “Effect … (Papp/flux) of PF” value in series [1] (setting [6]) and in series [1] (setting [7]) was “significantly increased” each time. The figures for the “P-gp expression versus control group” value in the series on P-gp [2] (20 μg/mL), in the series with P-gp [2] (40 μg/mL) and with P-gp [2] (80 μg/mL) were “significantly down-regulated”, “markedly down-regulated” and “markedly down-regulated”, respectively.

These data come from publication PMC6273373, “Elucidation of Transport Mechanism of Paeoniflorin and the Influence of Ligustilide, Senkyunolide I and Senkyunolide A on Paeoniflorin Transport through Mdck-Mdr1 Cells as Blood–Brain Barrier in Vitro Model” (Molecules, 2016).
